For one data set, the system named is hPSC-NPCs. From the text: FIG. 8A illustrates clustering and scaled expression patterns for differentially expressed genes (DEGs) during the differentiation process using NFIB. […] FIG. 8E and FIG. 8F quantify the percentage of cells positive for each marker on day 14 of differentiation. […] Data is presented as the mean #s.e.m. (n=3) (* p<0.05, ** p<0.01, *** p<0.001).

The test system of data set [1] is NFIB-induced astrocytes. In words: Calcium transient assay (Fluo-4 calcium imaging). Format: cell-based, human. How it is done: To confirm whether the cells acquire the ability to change intracellular calcium concentration, gene set enrichment analysis (GSEA) was employed to validate the expression pattern of genes related to this specific function. This analysis involved comparing the ranked gene signature of day 0 cells versus day 14 cells, with genes related to calcium-mediated signaling (GO:0019722). […] Calcium imaging was conducted on cells on days 7 and 14 using Fluo-4, a calcium indicator, and the intracellular calcium transients between two time points were compared. For calcium imaging, the differentiated astrocytes were prepared on 12 mm coverslips. After replacing the cell culture medium with Hank's Balanced Salt Solution (HBSS, without calcium or magnesium) (Thermo Fisher Scientific), differentiated astrocytes were incubated with 5 μM Fluo-4 AM (Thermo Fisher Scientific) at 37° C. for 30 minutes and then washed twice with the HBSS solution before calcium imaging. Thereafter, intracellular calcium levels were analyzed using the Fluo-4 AM fluorescence dye detection method, employing a confocal microscope (Fluoview FV1000, Olympus). For this purpose, intensity images of 535 nm wavelength were captured at 488 nm excitation wavelength at a rate of one frame per 2 seconds. Intracellular calcium levels were expressed as a fluorescence ratio (F/FO), calculated as changes in the fluorescence intensity (F) after treatments with 30 μM ATP or 100 μM glutamate, compared to the initial fluorescence intensity (FO) in the resting state.

For data set [2], the system named is NFIB-induced astrocytes. The data set is described as follows: Glutamate uptake analysis. Format: cell-based, human. To be noted: 100 µM of glutamate; after 3 hours; day 7 of differentiation; n=6. The text has this:
Uptake of excitatory neurotransmitters such as glutamate is another critical function of the astrocytes in the nervous system. This is because excessive glutamate concentration results in excitotoxic damage to the nervous tissue, potentially causing neurodegeneration. As there was a gradual upregulation of the neurotransmitter recycling protein, GLUL, in due course of gene expression (FIG. 5C, indicated by a red box with an asterisk), the ability of the NFIB-induced astrocytes to take up glutamate was assessed throughout differentiation to determine whether the ability improves. The astrocytes were exposed to 100 µM of glutamate, and the concentration of glutamate remaining in the medium was measured after 3 hours on day 7 and day 14. […] This increased uptake correlates well with the gradual increment of various genes related to neurotransmitter uptake (GO: 0001504), including SCL1A3 (a gene encoding excitatory amino acid transporter 1, also known as GLAST) and ARL6IP5 (a gene encoding glutamate transporter EEAC1-interacting protein).

Experimental findings from patent publication US20240218327A1, “METHOD FOR QUICKLY AND EFFICIENTLY DIFFERENTIATING FUNCTIONAL GLIAL CELLS” (priority 2020, published 2024) are described below.

Regarding `N#CC(=C(/N)Sc1ccccc1N)/C(C#N)=C(\N)Sc1ccccc1N` [U0126], in the data set with hPSC-NPCs (20 μM), the cell death result is given as “did not induce significant cell death” and the cell proliferation entry is “tended to slightly decrease cell proliferation”. Also, the “GFAP-positive cells (astrocytes) in total cells” value in the data set with hPSC-NPCs (20 μM, Treatment Condition 3: two days from day 12 to day 14 of differentiation) worked out at 26.88%. The “number of SOX1-positive cells” value in the data set on hPSC-NPCs (20 μM, among treatment groups, day 14) is on record as “not significantly different among the groups”. Further, the “morphology of GFAP-positive cells” value in the data set on hPSC-NPCs (20 μM, compared with vehicle-treated group, correlated with exposure time) is given as “small cell body with fewer short processes”. In the data set on hPSC-NPCs (20 μM, prolonged treatment (Treatment Condition 1 or 2), day 14), the “number of GFAP-positive cells” value is reported as “significantly reduced the number of GFAP-positive cells”. Besides, the “astrocyte differentiation (fluorescence images for GFAP and SOX1)” value in the data set with hPSC-NPCs (pharmacological inhibition of the MAPK signaling pathway, FIG. 8D) was “robust suppression of astrocyte differentiation”.
As for glutamate, the “duration of asynchronous calcium oscillations” value in the data set on NFIB-induced astrocytes [1] (100 μM glutamate, day 7 of differentiation) is “less than 100 seconds”. The “average amplitude of calcium response” value with NFIB-induced astrocytes [1] (100 μM glutamate, day 7 of differentiation, n=19) is reported as 4.92±0.32 F/FO. Also, the “cells with amplitudes greater than 10” value in the data set with NFIB-induced astrocytes [1] (100 μM glutamate, day 14 of differentiation) amounted to 32.4%. The “amplitude of intracellular calcium peaks” value in the data set on NFIB-induced astrocytes [1] (100 μM glutamate, day 14 of differentiation, n=26) is on record as 9.63±1.07 F/FO. Further, the glutamate uptake with NFIB-induced astrocytes [2] was 12.34±1.17%.
As for `Nc1ncnc2c1ncn2[C@@H]1O[C@H](COP(=O)(O)OP(=O)(O)OP(=O)(O)O)[C@@H](O)[C@H]1O` [ATP], the “cells with amplitude of calcium transients (F/FO) less than 3, among total cells” value with NFIB-induced astrocytes [1] (30 μM ATP, day 7 of differentiation, n=70) turned out to be 84.3%. Also, in the data set on NFIB-induced astrocytes [1] (30 μM ATP, day 14 of differentiation, all the cells tested, n=80), the “amplitude of calcium transients, fluorescence ratio” value is given as at least 3 F/FO. Also, the “duration of elevated intracellular calcium level” value in the data set with NFIB-induced astrocytes [1] (30 μM ATP, regardless of the differentiation period (day 7 and day 14)) is at least 50 s.
